Measurements as given in paper PMC7999549, “PBP4 Is Likely Involved in Cell Division of the Longitudinally Dividing Bacterium Candidatus Thiosymbion Oneisti” (Antibiotics, 2021).

Tests used:
PBP4^TO [1] = target: T1, PBP4^TO (Candidatus Thiosymbion oneisti, UniProt Z9LUN3GEC2); assay: Bocillin-FL competition, SDS-PAGE fluorescence; conditions: pH 7.5, 50 mM NaCl, 10 mM MgCl2, 28 °C, 20 min before 15 μg/mL Bocillin-FL (30 min)
T1 sequence (Z9LUN3GEC2 31-414 limits assumed): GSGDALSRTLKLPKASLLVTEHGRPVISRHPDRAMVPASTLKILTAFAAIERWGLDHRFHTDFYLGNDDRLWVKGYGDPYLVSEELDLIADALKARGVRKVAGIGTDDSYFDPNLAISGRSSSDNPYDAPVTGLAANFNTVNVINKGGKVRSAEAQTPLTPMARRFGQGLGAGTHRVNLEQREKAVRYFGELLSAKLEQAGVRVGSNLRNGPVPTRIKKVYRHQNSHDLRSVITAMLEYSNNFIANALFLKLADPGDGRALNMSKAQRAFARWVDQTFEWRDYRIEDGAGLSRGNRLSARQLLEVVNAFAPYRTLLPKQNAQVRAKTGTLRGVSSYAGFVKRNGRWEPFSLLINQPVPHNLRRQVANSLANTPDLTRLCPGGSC

PBP4^TO [2] = target: T1, PBP4^TO; assay: Bocillin-FL labelling, SDS-PAGE fluorescence; assay type: binding; design: His-tagged, expressed in cytoplasm of E. coli SF100 (plasmid pJW06, pET302 vector named); gene 1245 nt, 414 aa; dimers and higher oligomers on native PAGE; conditions: pH 7.5, 50 mM NaCl, 10 mM MgCl2, 28 °C, 30 min; covalent

SMILES: CC1(C)S[C@@H]2[C@H](N=CN3CCCCCC3)C(=O)N2[C@H]1C(=O)O [mecillinam]
- Bocillin-FL competition, SDS-PAGE fluorescence (PBP4^TO [1]; weak binder): PBP2 inhibitor mecillinam, PBP4 inhibitor cephalexin

SMILES: NC(=O)c1cc[n+](CC2=C(C(=O)[O-])N3C(=O)[C@@H](NC(=O)[C@@H](c4ccccc4)S(=O)(=O)O)[C@H]3SC2)cc1 [cefsulodin]
- Bocillin-FL competition, SDS-PAGE fluorescence (PBP4^TO [1]; weak binder): cefsulodin, PBP2 inhibitor mecillinam, PBP4 inhibitor cephalexin

SMILES: CC1=CC(C)=[N+]2C1=Cc1ccc(CCC(=O)Nc3ccc(OCC(=O)N[C@@H]4C(=O)N5[C@@H]4SC(C)(C)[C@@H]5C(=O)O)cc3)n1[B-]2(F)F [Bocillin-FL]
- Bocillin-FL labelling, SDS-PAGE fluorescence (PBP4^TO [2]): Purified PBP4^TO protein was detectable after Bocillin-FL labeling

SMILES: CC1(C)S[C@@H]2[C@H](NC(=O)Cc3ccccc3)C(=O)N2[C@H]1C(=O)O [penicillin G]
- Bocillin-FL competition, SDS-PAGE fluorescence (PBP4^TO [1]): penicillin G had a similar affinity for PBP4^TO as for PBP4^EC

SMILES: C[C@@H](O)[C@H]1C(=O)N2C(C(=O)O)=C(S[C@@H]3CN[C@H](C(=O)N(C)C)C3)[C@H](C)[C@H]12 [meropenem]
- Bocillin-FL competition, SDS-PAGE fluorescence (PBP4^TO [1]; possible allosteric second site at high concentration): does present some affinity for PBP4^TO, whereas Bocillin-FL intensity is enhanced with high-concentration treatment
